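Briefly, cells in 96-well plates were exposed to five compound concentrations for 48 h, and endpoints were estimated by linear interpolation. The concentration for 50% growth inhibition is given as GI50. TGI marks complete inhibition of growth.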
What was measured:
Experiment in all cases: NCI-60 cell line screen, 48 h
SR leukemia = system: SR leukemia
SNB-19 CNS = system: SNB-19 CNS
U251 CNS = system: U251 CNS
NCI-H522 lung = system: NCI-H522 lung
DU-145 prostate = system: DU-145 prostate
UACC-62 melanoma = system: UACC-62 melanoma
HCT-15 colon = system: HCT-15 colon
M14 melanoma = system: M14 melanoma
TK-10 renal = system: TK-10 renal
A549 NSCLC = system: A549 NSCLC
786-0 renal = system: 786-0 renal
A498 renal = system: A498 renal
COLO 205 colon = system: COLO 205 colon
SK-MEL-2 melanoma = system: SK-MEL-2 melanoma
SK-MEL-5 melanoma = system: SK-MEL-5 melanoma
PC-3 prostate = system: PC-3 prostate
MALME-3M melanoma = system: MALME-3M melanoma
HCT-116 colon = system: HCT-116 colon

Structure (SMILES) | TGI (SR leukemia) [µM] | TGI (SNB-19 CNS) [µM] | TGI (U251 CNS) [µM] | TGI (NCI-H522 lung) [µM] | TGI (DU-145 prostate) [µM] | TGI (UACC-62 melanoma) [µM] | TGI (HCT-15 colon) [µM] | TGI (M14 melanoma) [µM] | TGI (TK-10 renal) [µM] | TGI (A549 NSCLC) [µM] | TGI (786-0 renal) [µM] | TGI (A498 renal) [µM] | TGI (COLO 205 colon) [µM] | TGI (SK-MEL-2 melanoma) [µM] | TGI (SK-MEL-5 melanoma) [µM] | TGI (PC-3 prostate) [µM] | TGI (MALME-3M melanoma) [µM] | TGI (HCT-116 colon) [µM] | GI50 (A498 renal) [µM]
COc1ccc2cc(NC(=O)Nn3cnnc3)ccc2c1 | > 100 | > 100 | > 100 | > 100 | > 100 | > 100 | > 100 | > 100 | > 100 | > 100 | > 100 | > 100 | > 100 | > 100 | > 100 | > 100 | > 100 | > 100 | –
Oc1c(Nc2ccccc2)cc2c3c1N=NC=3CCN=2 | > 100 | > 100 | > 100 | > 100 | > 100 | 49.2 | > 100 | > 100 | > 100 | > 100 | > 100 | > 100 | > 100 | > 100 | 33.1 | > 100 | 29.1 | 44.4 | –
CCOC(=O)C(CC(C)C)NC(=O)C(N)Cc1ccc(N(CCCl)CCCl)cc1 (stereo not drawn) | 4.69 | 35.5 | 22.4 | 8.53 | 47.1 | 9.56 | 11.5 | 11.7 | 25.3 | 45.1 | 6.81 | 30.9 | 12.1 | 11.8 | 19.8 | 32.2 | 3.84 | 17.9 | –
CCC1CN2CCc3cc(OC)c(OC)cc3C2CC1CC1c2cc(OC)c(OC)cc2CCN1C(=O)C(Cc1c[nH]c2ccccc12)NC(=O)OC(C)(C)C (stereo not drawn) | 13.8 | 17.6 | 6.29 | 5.57 | 4.75 | 14 | 7.35 | 3.29 | 16 | 7.93 | 6.74 | 17.8 | 2.95 | 7.13 | 3.08 | 10.5 | 3.22 | 5.78 | –
COc1ccc(NS(=O)(=O)c2ccc3ncn(NS(=O)(=O)c4ccc(I)cc4)c(=O)c3c2)cc1 | > 100 | > 100 | > 100 | > 100 | > 100 | > 100 | > 100 | > 100 | > 100 | > 100 | > 100 | > 100 | > 100 | > 100 | > 100 | > 100 | > 100 | > 100 | –
CC1(C)CCCCC1/C=C/C(CC(O)(C(F)(F)F)C(F)(F)F)=N\Nc1ccc([N+](=O)[O-])cc1[N+](=O)[O-] (stereo not drawn) | > 100 | 19 | 10.7 | 13.1 | 13.4 | 13.9 | > 100 | 17.2 | 15.5 | 3.59 | 4.7 | 6.96 | 10.8 | 30 | 1.24 | 5.32 | 48.3 | 6.2 | –
CCOc1ccc(-n2c(=O)c3nn4c(=O)n(-c5ccc(OCC)cc5)c(=O)c4nn3c2=O)cc1 | > 100 | > 100 | > 100 | > 100 | > 100 | > 100 | > 100 | > 100 | > 100 | > 100 | > 100 | 67.9 | > 100 | > 100 | > 100 | > 100 | > 100 | > 100 | –
CCN(CC)CCOc1ccc(N2Cc3cc(OC)c(OC)cc3C2=O)cc1 | > 100 | > 100 | > 100 | > 100 | > 100 | > 100 | > 100 | > 100 | > 100 | > 100 | > 100 | > 100 | > 100 | > 100 | > 100 | > 100 | > 100 | > 100 | –
Cc1ccc(C2=NN=C3C(c4ccccc4)=Nc4ccccc4N3C2)cc1 | > 100 | > 78.3 | > 81.1 | 26.8 | 32.3 | > 100 | > 100 | 34.4 | 1.78 | > 100 | > 50.7 | > 100 | > 100 | > 100 | 32.8 | > 100 | 47.2 | > 83.7 | –
C/C(=N/NC(=S)Nc1ccccc1C)c1ccccn1 | > 4.64 | 54.8 | 18.1 | 12.9 | 11.3 | 5.99 | 18.3 | 5.7 | 4.27 | 18.5 | 18 | 12.3 | 2.56 | 12.8 | 2.31 | 19.5 | 15.9 | 12.9 | –
N[C@@H]1c2c(Br)sc(Br)c2C(=O)[C@H]1Br | > 64.2 | > 74.6 | 60.1 | 29 | > 100 | 59.3 | 60.8 | 50.9 | > 100 | > 100 | 63.5 | > 69.9 | > 68 | > 100 | > 100 | > 84.8 | 57.4 | 39.9 | –
C=CC[C@H](O)[C@@](NC(=O)OCc1ccccc1)(Sc1ccc(C)cc1)C(F)(F)F | 60.9 | > 100 | 28.4 | 32.4 | > 100 | > 100 | > 100 | 74.4 | > 100 | > 100 | 32.7 | > 100 | 39.1 | 75.8 | > 100 | > 100 | > 100 | 60.5 | –
O=C(CC(O)(C(F)(F)Cl)C(F)(F)Cl)CC(O)(C(F)(F)Cl)C(F)(F)Cl | > 10 | > 10 | 7.39 | > 10 | > 10 | > 10 | > 10 | > 10 | > 10 | > 10 | > 10 | 7.74 | 3.07 | 3.54 | 4.62 | 8.2 | 4.36 | 3.68 | –
Cc1ccc2[nH]c3c(C)c4cc[n+](C)cc4c(C)c3c2c1 | 70.7 | 2.53 | 2.11 | 3.9 | 33.5 | 16.4 | > 82.6 | 28.9 | > 96.3 | 4.28 | 2.75 | 4.53 | 5.05 | 4.71 | 8.54 | 7.63 | 4.38 | 32.6 | –
CC(C)(C)OC(=O)CCC1NC(=O)[C@@H]2Cc3c([nH]c4ccccc34)C(c3ccccc3)N2C1=O (stereo partly drawn) | > 100 | > 100 | 43.3 | 54.1 | > 100 | 35.7 | 90.5 | 87.2 | > 100 | > 100 | > 100 | > 100 | 43.7 | 43.2 | 37.9 | 52.9 | 43.4 | 42.7 | –
C/C(CC(O)(C(F)(F)Cl)C(F)(F)Cl)=N\Nc1ccccc1 | > 100 | > 100 | 89.4 | > 100 | > 100 | > 100 | > 100 | > 100 | 95.3 | > 100 | > 100 | > 100 | > 100 | 79.7 | 36.9 | 78.9 | > 100 | > 100 | –
Cc1ccc(OC2CC(n3cnc4c(=O)[nH]c(Br)nc43)OC2Oc2ccc(C)cc2)cc1 (stereo not drawn) | 51.1 | 49 | 79.9 | 59.8 | 53.9 | 53.7 | 91.6 | 62.1 | 49.8 | 69.7 | 74.9 | > 100 | 82.8 | 75.8 | 58.7 | 49.8 | 61.5 | > 100 | –
CC1(C)OP(=O)(c2ccccc2)C=C1Br (stereo not drawn) | > 100 | > 100 | > 100 | > 100 | > 100 | > 100 | > 100 | > 100 | > 100 | > 100 | > 100 | > 100 | > 100 | > 100 | > 100 | > 100 | > 100 | > 100 | –
O=C(O)[C@@]1(Cc2ccc(O)cc2)C[C@@H]2Cc3ccccc3N2N1 | > 100 | > 100 | > 100 | > 100 | > 100 | > 100 | > 100 | > 100 | > 100 | > 100 | > 100 | > 100 | > 100 | > 100 | > 100 | > 100 | > 100 | > 100 | –
Cc1ccc(S(=O)(=O)NN=C2C(C)CC(C(C)(C)C)CC2C)cc1 (stereo not drawn) | 62.2 | 66 | 31.5 | 50.2 | 39.1 | 93.2 | 34.4 | 26.9 | 65 | 32.7 | 32.9 | 31.4 | 34.5 | 32.9 | 31.3 | 37.9 | 32.6 | 34.1 | –
CCOC(=O)C(=O)N=Nc1c(O)[nH]c2ccccc12 | > 100 | > 100 | > 100 | > 100 | > 100 | > 100 | > 100 | > 100 | > 100 | > 100 | > 100 | > 100 | > 100 | > 100 | > 100 | > 100 | > 100 | > 100 | –
CNC(=O)Nn1c(SC)nc2ccccc21 | > 100 | > 100 | > 100 | > 100 | > 100 | > 100 | > 100 | > 100 | > 100 | > 100 | > 100 | > 100 | > 100 | > 100 | > 100 | > 100 | > 100 | > 100 | –
CCN(CC)CCC1CCCCN1CC(=O)N1c2ccccc2NC(=O)CC1C (stereo not drawn) | > 100 | > 100 | > 100 | > 100 | > 100 | > 100 | > 100 | > 100 | > 100 | > 100 | > 100 | > 100 | > 100 | > 100 | > 100 | > 100 | > 100 | > 100 | –
NCCSC1(O)C(=O)c2ccccc2-c2ccccc21 (stereo not drawn) | 1.88 | 2.86 | 2.16 | 2.95 | 2.28 | 2.91 | 2.54 | 4.25 | 3.26 | 2.91 | 3.46 | 3.11 | 3.84 | 3.47 | 1.34 | 2.56 | 2.84 | 1.04 | 1.71

Reference: PubChem BioAssay (NCI)
